# Where a name gives a salt, the structure may show the parent alone.
# Columns and labels:
# mice = experiment: Writhing Assay (PBQ-induced writhing, analgesia in mice); type: in vivo, mice (Charles River male albino); details: Mus musculus, po, 25 min, intragastric, PBQ i.p. 25 minutes later, writhes <= one-half the median of saline control; for responders at 30 mg/kg: 30 mg per kilogram, read-out: WRITHING ASSAY Number Out of Nine or Ten (mice in which test compound produced analgesia) (converted); for responders at 10 mg/kg: 10 mg per kilogram, read-out: WRITHING ASSAY Number Out of Nine or Ten (mice in which test compound produced analgesia)
# Description: The Writhing Assay is one of the most widely-used experimental procedures for measuring the analgesic activity of different narcotic and nonnarcotic analgesic agents, and involves the continuous, chemically-induced pain of visceral origin to an animal, such as a mouse or rat. Gyires et al., Arch. int. […] Vander Wende et al., Fed. […] Chemicals which may be used to induce this pain include phenylbenzoquinone (PBQ) and acetic acid. As a result of the chemical irritation to the animal, a characteristic stretching and writhing of the animal (dorsiflexion of the animal's back, extension of its hindlimbs and the strong contraction of its abdominal musculature) will generally occur. […] Drugs which reduce the number of writhes of the animal appear to restore the normal nociceptive threshold of the animal.
# Charles River male albino mice, weighing 20 to 30 grams were used in this assay.
# Ten mice which were given saline in place of a test compound of the invention were used as a control group.
# Five minutes later, each mouse was individually placed into a glass beaker for observation, and the number of writhes occurring during the following ten-minute period was counted.
# [1] = tested on: prostaglandin E2 -induced contractions of segments of guinea pig ileum; experiment: Prostaglandin (PGE) Antagonism Assay in guinea pig ileum; type: cell-based; details: dose ratio of EC50 doses of prostaglandin E2; initial test compound concentration 3 micromolar; 37° C.
# Experimental: In order to determine the effectiveness of several of the compounds of the present invention ("test compounds") as prostaglandin E2 antagonists,a prostaglandin antagonism assay was conducted, as described below, to determine the ability of these compounds to inhibit prostaglandin E2 -induced contractions of segments of guinea pig ileum. […] Male albino guinea pigs weighing 200 to 500 grams were sacrificed by cervical dislocation. The ilea were then quickly removed from the guinea pigs and placed in a modified Tyrode solution, a solution which is known to those skilled in the art, containing one-half of the usual amount of magnesium ions. Segments of ileum about 2 cm long were then cut and mounted in a 10-mL tissue bath containing the modified Tyrode solution. […] Data for a control prostaglandin E2 dose response curve plotting concentration of prostaglandin E2 versus the intensity of contractions, detected isotonically, was then obtained by experimentally adjusting the dose of the prostaglandin E2 being injected into the tissue bath, in a manner known by those of skill in the art. Solutions or suspensions containing an initial concentration (3 micromolar) of a test compound in modified Tyrode solution ("test solutions/suspensions") were then separately substituted for the control bath solution. Each test solution/suspension was then kept in constant contact with the ileum tissue, except for brief periods to drain the bath in preparation for rinsing with fresh test solution/suspension. A second prostaglandin E2 dose response curve was then generated for prostaglandin E2 in the presence of a test compound. A dose ratio of EC50 doses was then calculated from the results of each test in a manner known by those of skill in the art.
# [2] = tested on: isolated smooth muscle preparations; details: cited from earlier work
compound,measurement,setting,value
"O=C(NCc1ccccn1)c1ccccc1C(=O)N1Cc2ccccc2Oc2ccc(Cl)cc21 [Example 14, 2-(8-chlorodibenzb,f! 1,4!oxazepin-10(11H)-yl) carbonyl!-N-(2-pyridinylmethyl!benzamide, dihydrochloride]",responders at 30 mg/kg,mice,30%
same,PGE ANTAGONISM IN GUINEA PIG ILEUM Dose Ratio (DR),[1],4.07
"O=S(=O)(c1ccc(CCc2ccncc2)cc1)N1Cc2ccccc2Oc2ccc(Cl)cc21 [Example 3, 8-chloro-10,11-dihydro-10-4-2-(4-pyridinyl)ethyl!phenyl!sulfonyl!dibenzb,f! 1,4!oxazepine, monohydrochloride]",responders at 30 mg/kg,mice,50%
same,PGE ANTAGONISM IN GUINEA PIG ILEUM Dose Ratio (DR),[1],1.0
"O=C(NCc1ccncc1)c1cccc(C(=O)N2Cc3ccccc3Oc3ccc(Cl)cc32)c1 [Example 16, 3-f 8-chlorodibenz b,f! 1,4!oxazepin-10(11H)yl)carbonyl!-N-(4-pyridinylmethyl)benzamide, monohydrochloride]",responders at 30 mg/kg,mice,80%
same,PGE ANTAGONISM IN GUINEA PIG ILEUM Dose Ratio (DR),[1],4.67
"O=C(NCc1cccnc1)c1cccc(C(=O)N2Cc3ccccc3Oc3ccc(Cl)cc32)n1 [Example 31, 6-(8-chlorodibenzb,f! 1,4!oxazepin-10(11H)yl)carbonyl!-N-(3-pyridinylmethyl)-2-pyridinecarboxamide, hydrochloride]",responders at 30 mg/kg,mice,60%
same,PGE ANTAGONISM IN GUINEA PIG ILEUM Dose Ratio (DR),[1],1.70
"O=C(NCc1ccncc1)c1ccccc1C(=O)N1Cc2ccccc2Oc2ccc(Cl)cc21 [Example 12, 2-(8-chlorodibenzb,f! 1,4!oxazepin-10(11H)yl)carbonyl!-N-(4-pyridinylmethyl)benzamide, hydrochloride]",responders at 30 mg/kg,mice,33.3%
same,PGE ANTAGONISM IN GUINEA PIG ILEUM Dose Ratio (DR),[1],4.23
"O=C(NCc1cccnc1)c1ccc(C(=O)N2Cc3ccccc3Oc3ccc(Cl)cc32)cc1 [Example 10, 4-(8-chlorodibenzb,f! 1,4!oxazepin-10(11H)yl)carbonyl!-N-f3,pyridinylmethyl)benzamide, hydrochloride]",responders at 30 mg/kg,mice,40%
same,PGE ANTAGONISM IN GUINEA PIG ILEUM Dose Ratio (DR),[1],3.2
"O=C(NCc1ccccn1)c1ccc(CN2Cc3ccccc3Oc3ccc(Cl)cc32)cn1 [Example 36, 5-(8-chlorodibenzb,f! 1,4!oxazepin-10(11H)yl)methyl!-N-(2-pyridinylmethyl!-2-pyridinecarboxamide, monohydrochloride]",responders at 30 mg/kg,mice,77.8%
same,PGE ANTAGONISM IN GUINEA PIG ILEUM Dose Ratio (DR),[1],2.6
"O=C(NCc1ccccn1)c1cccc(C(=O)N2Cc3ccccc3Oc3ccc(Cl)cc32)n1 [Example 32, 6-(8-chlorodibenzb,f! 1,4!oxazepin-10(11H)yl)carbonyl!-N,(2-pyridinylmethyl)-2-pyridinecarboxamide, hydrochloride]",responders at 30 mg/kg,mice,30%
same,PGE ANTAGONISM IN GUINEA PIG ILEUM Dose Ratio (DR),[1],0.63
"O=C(NCc1cccnc1)c1ccccc1C(=O)N1Cc2ccccc2Oc2ccc(Cl)cc21 [Example 13, 2-(8-chlorodibenzb,f! 1,4!oxazepin-10 f 11H)yl)carbonyl!-N-(3-pyridinylmethyl)benzamide, hydrochloride]",responders at 30 mg/kg,mice,50%
same,PGE ANTAGONISM IN GUINEA PIG ILEUM Dose Ratio (DR),[1],1.10
"O=C(c1ccc(CCc2ccncc2)cc1)N1Cc2ccccc2Oc2ccc(Cl)cc21 [Example 8, Compound F, 8-chloro-10,11-dihydro-10-4-2-(4-pyridinyl)ethyl!benzoyl!dibenz b,f! 1,4! oxazepine, hydrochloride]",responders at 10 mg/kg,mice,90%
same,PGE ANTAGONISM IN GUINEA PIG ILEUM Dose Ratio (DR),[1],1.1
CC(=O)NNC(=O)N1Cc2ccccc2Oc2ccc(Cl)cc21 [SC-19220],inhibition of the stimulant actions of prostaglandins on isolated smooth muscle preparations,[2],inhibit the stimulant actions of prostaglandins
"O=C(NCc1ccccn1)c1cccc(C(=O)N2Cc3ccccc3Oc3ccc(Cl)cc32)c1 [Example 18, 3-(8-chlorodibenzb,f! 1,4!oxazepin-10(11H)yl)carbonyl!-N-(2-pyridinylmethyl!benzamide, hydrochloride]",responders at 30 mg/kg,mice,70%
same,PGE ANTAGONISM IN GUINEA PIG ILEUM Dose Ratio (DR),[1],114
"O=C(NCc1cccnc1)c1cccc(C(=O)N2Cc3ccccc3Oc3ccc(Cl)cc32)c1 [Example 17, 3-(8-chlorodibenzb,f! 1,4!oxazepin-10(11H!yl!carbonyl!-N-(3-pyridinylmethyl)benzamide, monohydrochloride]",responders at 30 mg/kg,mice,50%
same,PGE ANTAGONISM IN GUINEA PIG ILEUM Dose Ratio (DR),[1],66.0
"O=C(NCc1cccnc1)c1ccc(S(=O)(=O)N2Cc3ccccc3Oc3ccc(Cl)cc32)cc1 [Example 5, 4-(8-chlorodibenzb,f! 1,4!oxazepin-10(11H)yl) sulfonyl!-N-(3-pyridinylmethyl)benzamide, monohydrochloride]",responders at 30 mg/kg,mice,30%
same,PGE ANTAGONISM IN GUINEA PIG ILEUM Dose Ratio (DR),[1],4.4
"O=C(NCc1ccncc1)c1ccc(C(=O)N2Cc3ccccc3Oc3ccc(Cl)cc32)cc1 [Example 9, 4-(8-chlorodibenzb,f! 1,4!oxazepin-10(11H)-yl)carbonyl!-N-(4-pyridinylmethyl)benzamide, hydrochloride]",responders at 10 mg/kg,mice,80%
same,PGE ANTAGONISM IN GUINEA PIG ILEUM Dose Ratio (DR),[1],2.29
"O=C(NCc1ccccn1)c1ccc(CN2Cc3ccccc3Oc3ccc(Cl)cc32)cc1 [Example 29, 4-(8-chlorodibenz E b,f! 1,4!oxazepin-10(11H)yl)methyl!-N-(2-pyridinylmethyl)benzamide, hydrochloride]",responders at 30 mg/kg,mice,50%
same,PGE ANTAGONISM IN GUINEA PIG ILEUM Dose Ratio (DR),[1],10.4
O=C(Cc1ccccc1)NNC(=O)N1Cc2ccccc2Oc2ccc(Cl)cc21 [SC-18637],inhibition of the stimulant actions of prostaglandins on isolated smooth muscle preparations,[2],inhibit the stimulant actions of prostaglandins
"O=C(NCc1ccncc1)c1ccc(CN2Cc3ccccc3Oc3ccc(Cl)cc32)cn1 [Example 34, 5-(8-chlorodibenzb,f! 1,4!oxazepin-10(11H)yl)methyl!-N-(4-pyridinylmethyl)-2-pyridinecarboxamide, monohydrochloride]",responders at 30 mg/kg,mice,20%
same,PGE ANTAGONISM IN GUINEA PIG ILEUM Dose Ratio (DR),[1],1.16
"O=C(NCc1ccncc1)c1cccc(C(=O)N2Cc3ccccc3Oc3ccc(Cl)cc32)n1 [Example 30, 6-(8-chlorodibenzb,f! 1,4!oxazepin-10(11H)yl)carbonyl!-N-(4-pyridinylmethyl)-2-pyridinecarboxamide, hydrochloride]",responders at 30 mg/kg,mice,70%
same,PGE ANTAGONISM IN GUINEA PIG ILEUM Dose Ratio (DR),[1],0.81
"O=C(NCc1ccncc1)c1ccc(CN2Cc3ccccc3Oc3ccc(Cl)cc32)cc1 [Example 27, 4-(8-chlorodibenzb,f! 1,4!oxazepin-10(11H)yl)methyl!-N-(4-pyridinylmethyl)benzamide, hydrochloride]",responders at 30 mg/kg,mice,50%
same,PGE ANTAGONISM IN GUINEA PIG ILEUM Dose Ratio (DR),[1],22.7
"O=C(NCc1cccnc1)c1ccc(CN2Cc3ccccc3Oc3ccc(Cl)cc32)cc1 [Example 28, 4-(8-chlorodibenzb,f! 1,4!oxazepin-10(11H)yl)methyl!-N-(3-pyridinylmethyl)benzamide, hydrochloride]",responders at 30 mg/kg,mice,60%
same,PGE ANTAGONISM IN GUINEA PIG ILEUM Dose Ratio (DR),[1],3.59
"O=C(c1ccc(/C=C\c2ccncc2)cc1)N1Cc2ccccc2Oc2ccc(Cl)cc21 [Example 8, Compound E, 8-chloro-10,11-dihydro-10-4-2Z-(4-pyridinyl)ethenyl!benzoyl!dibenz b,f! 1 ,4!oxazepine, hydrochloride]",responders at 10 mg/kg,mice,90%
same,PGE ANTAGONISM IN GUINEA PIG ILEUM Dose Ratio (DR),[1],4.8
"O=C(NCc1cccnc1)c1ccc(CN2Cc3ccccc3Oc3ccc(Cl)cc32)cn1 [Example 35, 5-(8-chlorodibenzb,f! 1,4!oxazepin-10(11H)yl)methyl!-N-(3-pyridinylmethyl)-2-pyridinecarboxamide, monohydrochloride]",responders at 30 mg/kg,mice,70%
"O=C(NCc1ccncc1)c1ccc(S(=O)(=O)N2Cc3ccccc3Oc3ccc(Cl)cc32)cc1 [Example 4, 4-(8-chlorodibenzb,f! 1,4!oxazepin-10(11H)yl)sulfonyl!-N-(4-pyridinylmethyl)benzamide, monohydrochloride]",responders at 30 mg/kg,mice,60%
